Results taken from ChEMBL document CHEMBL5729318, “Pharmaceutical compounds for treatment of medical disorders” (2022).

Target: Complement factor D (Homo sapiens, UniProt P00746)
Experiment: Human Factor D Assay: Human Factor D (purified from human serum, Complement Technology, Inc.) at 80 nM final concentration is incubated with test compound at various concentrations for 5 min at room temperature in 50 mM Tris, 1M NaCl, pH 7.5. A synthetic substrate Z-L-Lys-SBzl and DTNB (Ellman's reagent) are added to final concentrations of 100 μM each. Absorbance at 405 nm (A405) is recorded at 30 second intervals for 30 min using a microplate spectrophotometer. IC50 values are calculated by nonlinear regression of Complement Factor D reaction rates as a function of test compound concentration.

Complement factor D, sequence (P00746 whole entry): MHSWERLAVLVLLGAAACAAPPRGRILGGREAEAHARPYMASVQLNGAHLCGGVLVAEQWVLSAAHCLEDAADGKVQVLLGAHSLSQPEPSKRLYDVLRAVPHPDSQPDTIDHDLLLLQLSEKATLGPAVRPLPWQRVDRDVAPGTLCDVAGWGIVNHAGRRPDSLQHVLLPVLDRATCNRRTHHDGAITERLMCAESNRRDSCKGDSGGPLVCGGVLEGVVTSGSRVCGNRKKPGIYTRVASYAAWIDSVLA

**Q.** CC(=O)c1nn(CC(=O)N2C[C@H](F)C[C@H]2C(=O)Nc2cccc(Br)n2)c2ccc(C3OCC(N)CO3)cc12 (stereo partly specified) was tested. Which IC50 did it give?
**A.** Its IC50 is less than 1 µM.

**Q.** For CC(=O)c1nn(CC(=O)N2[C@H](C(=O)Nc3nc(Br)ccc3C)C[C@@]3(C)C[C@@H]23)c2ccc(N)cc12, which IC50 is on record?
**A.** Its IC50 is less than 1 µM.

**Q.** CC(=O)c1nn(CC(=O)N2[C@H](C(=O)Nc3cccc(Br)n3)C[C@@]3(C)C[C@@H]23)c2c(C)cccc12 was tested. Which IC50 did it give?
**A.** Its IC50 is less than 1 µM.

**Q.** Which IC50 does the source give for CC(=O)c1nn(CC(=O)N2[C@H](C(=O)Nc3nc(Br)ccc3C)C[C@@]3(C)C[C@@H]23)c2c(C)cccc12 here?
**A.** Its IC50 is less than 1 µM.

**Q.** Which IC50 does the source give for CC(=O)c1nn(CC(=O)N2[C@H](C(=O)Nc3nc(Br)ccc3C)C[C@@]3(C)C[C@@H]23)c2ccc(N(C)C)cc12 here?
**A.** The IC50 was less than 1 µM.

**Q.** For CC(=O)c1nn(CC(=O)N2[C@H](C(=O)Nc3cccc(Br)n3)C[C@@]3(C)C[C@@H]23)c2ccc(NC(=O)N3CCC(F)(F)C3)cc12, which IC50 is on record?
**A.** The IC50 was less than 1 µM.
